Test system: HeLa cells
Assay: Cellular localization of BODIPY-ceramide by confocal microscopy
Assay type: cell-based
Conditions: 10 µM inhibitor, 2 h
Experimental: 5.1 Cellular Localization of BODIPY-Ceramide
HeLa cells were seeded in 8 well chamber slides (ibidi µ-Slide 8 Well) in RPMI 1640 medium supplemented with 10% (v/v) heat‐inactivated FCS, 1 mM sodium pyruvate and 2 mM L-glutamine at 37 °C and 5% (v/v) CO2 in a humidified incubator. The day after, cells were incubated with inhibitors for 2 h at a concentration of 10 µM or left untreated by replacing the medium with fresh medium supplemented with the respective inhibitors. After 2 h of incubation, BODIPY FL C5-ceramide (Thermo Fisher) was added to a final concentration of 0,25 µM and imaging was immediately done using an LSM 780 laser scanning confocal microscope (Carl Zeiss). No additional wash steps were performed. After 1 h of incubation, DNA was counterstained using Hoechst 33342. For quantification of BODIPY-Ceramide trafficking, cells were transfected with pECFP-GalT the day before inhibitor incubation for the expression of an eCFP fusion of the human galactosyltransferase (GalT; amino acids 1-60), which localizes at the Golgi apparatus. After incubation with the respective inhibitors (see above), cells were imaged at 30 min post addition of BODIPY FL C5-ceramide. Mean BODIPY intensities of regions of interest surrounding eCFP-GalT-positive Golgi stacks were measured (40 cells per biological replicate, 4 biological replicates in total) using ImageJ software (Rasband, W.S., ImageJ, U. S. National Institutes of Health, Bethesda, Maryland, USA, https://imagej.nih.gov/ij/, 1997-2018) and divided by the total BODIPY intensity detected in the field of view. Quantification (Fig 10B) is expressed as normalized intensity ratio (GA/total).
Figure S10. A Uptake of BODIPY FL C5-ceramide to HeLa cells assessed by normalized fluorescence intensity B Distribution of BODIPY FL C5-ceramide by normalized fluorescence […]
(1 picture or pasted object on this page, not shown here)
Figure S11. BODIPY-Ceramide trafficking. Confocal images showing distribution of BODIPY FL C5-ceramide (green) and Golgi apparatus costaining (eCFP-GalT; blue) in HeLa cells pretreated with 10 µM of respective inhibitors or left untreated. Figures show representative images (n = 4 biological replicates with 40 cells per biological replicate); scale bars, 10 µm.

Structure (SMILES)	effect on intracellular distribution of BODIPY-Cer
CC1=NN(c2ccc(C)c(C)c2)C(=O)/C1=N\Nc1cccc(-c2cccc(C(=O)O)c2)c1O [17C9, Eltrombopag]	only minor effects
O=C(NC1CCN(CCCCC2(C(=O)NCC(F)(F)F)c3ccccc3-c3ccccc32)CC1)c1ccccc1-c1ccc(C(F)(F)F)cc1 [8E8, lomitapide]	significantly influenced
Cc1cc(C2=NOC(c3cc(Cl)cc(Cl)c3)(C(F)(F)F)C2)ccc1C(=O)NCC(=O)NCC(F)(F)F (stereo not shown) [20D5, Fluralaner]	significantly influenced
CCCC(=O)OCOC(=O)C1=C(C)NC(C)=C(C(=O)OC)C1c1cccc(Cl)c1Cl (stereo not shown) [6B11, Clevidipine butyrate]	only minor effects

— publication PMC7756341, “Liposomal FRET Assay Identifies Potent Drug‐Like Inhibitors of the Ceramide Transport Protein (CERT)” (Chemistry (Weinheim an Der Bergstrasse, Germany), 2020)
